From paper PMC8351079, “Molecular encapsulation of andrographolide in 2-hydroxypropyl-β-cyclodextrin cavity: synthesis, characterization, pharmacokinetic and in vitro antiviral activity analysis against SARS-CoV-2” (Heliyon, 2021)
In brackets after ≈: the same amount, converted by molar mass. Where two headings read alike, the source gives them in different places.

Legend:
[1] = Pharmacokinetic analysis in rats (AND in plasma by HPLC); conditions: male, Sprague Dawley, in vivo, rat
[2] = as above; design: species or system male Sprague Dawley rats; conditions: in vivo, rat
Experimental: The pharmacokinetic analysis was carried out in male Sprague Dawley rats. The animals were kept in light controlled environment (Photoperiod~12 h, 23 ± 1 °C, 50 ± 5% humidity) with access to food and water ad libitum. […] In brief, 120 male rats were indiscriminately divided into 30 groups of 4 animals each similar to blood collection time points. AND and AND equivalent to 100 mg.kg^−1 in AND-2-HyP-β-CYD complex was administered orally by gavages.
The AND in plasma was monitored up to 48 h post oral administration of AND and AND-2-HyP-β-CYD complex. Blood samples were collected in both groups at 0.083, 0.25, 0.5, 1, 2, 4, 8, 16, 24 and 48 h. About 750 μl of blood sample was isolated from the retro-orbital vein into microcentrifuge tubes containing 100 μl of 10 % w/v sodium citrate as anticoagulant. The plasma was extracted from the blood by centrifugation at 5000 rpm for 20 min at 4 °C and stored at -40 °C until analyzed.
To extract the AND from plasma samples, plasma was typically mixed with methanol (1: 3 ratio) and vortexed for 20 min. Post mixing, the homogenate was centrifuged for 20 min at 5000 rpm to extract the proteins. The supernatant was filtered through 0.22 μm membrane filter and 10 μl was injected as specified earlier in to the HPLC system.
Plasma concentration data were analyzed and computed for one-compartmental pharmacokinetic parameters. The following pharmacokinetic parameters were assessed: ke (h), t1/2 (h), Cmax (μg.mL^−1), AUClast (h.μg.mL^−1), AUCinf (h.μg.mL^−1), MRT (h), CLTotal (L.h^−1), Vd (L) and F %.

[3] = in vivo, cited from earlier work
[4] = cited from earlier work
[5] = Dissolution test (USP apparatus, SIF pH 7.2); format: physicochemical; conditions: SIF pH 7.2, after 2 h
Experimental: Dissolution testing was carried out using USP dissolution rate test apparatus as per the standard protocol with HPLC method as specified earlier. In brief, 100 mg of AND or 100 mg of AND equivalent in AND-2-HyP-β-CYD complex powder was suspended in simulated intestinal fluid (SIF, pH 7.2, 900 mL) and paddle was rotated at 50 rpm. The temperature of SIF was kept at 37 ± 2 °C. At specified time intervals, 2 mL of the SIF was taken and replaced with identical volume.

[6] = Solubility analysis by saturated solution method; format: physicochemical; conditions: aqueous phase, 37 °C
Experimental: The solubility of solid complex was measured by saturated solution method. […] Subsequently, suspension was filtered and 0.1 mL was diluted to 1 mL with water. […] All measurements were noticed in triplicate (n = 3).

[7] = room temperature; cited from earlier work
SARS-CoV-2 = experiment: microbe, parasite or virus in culture; format: cell-based; conditions: for % Inhibition of virus replication post infection: concentration not given; for IC50: Severe acute respiratory syndrome coronavirus 2, Vero C1008, Vero E6 cells infected with SARS-CoV-2, MOI 0.01, qRT-PCR after 48 h
[8] = Cytotoxicity testing, MTT cell proliferation assay; format: cell-based; conditions: African green monkey, Vero E6 cells, concentration not given, read-out: % Cell viability against Vero E6 cells
Experimental: The cytotoxic effect of AND-2-HyP-β-CYD complex on the property of Vero E6 cells was evaluated by using MTT dye [3-(4,5-dimethylthiazol-2-yl)-2,5-diphenyltetrazolium bromide] assay technique. In brief, 1 × 10^4 Vero E6 cells were incubated for 24 h in serum DMEM (Dulbecco's Modified Eagle Medium) of about 200-μl in a 96 wells microtiter plate. Subsequently, Vero E6 cells were incubated for 24 h as well as 72 h with 10 μg.mL^−1 or 100-μg.mL^−1 of AND-2-HyP-β-CYD complex. On the other hand, remedisivir was taken as standard in identical concentration range. MTT dye stock solution (0.5 mg.mL^−1) was incorporated to each well of the microtiter plate post completion of incubation time. The plate was further incubated in 5% CO2 incubator at 37 °C for 4 h. The formazon crystals liberated after cell lysis, were suspended in 100 μL of DMSO (Dimethyl sulfoxide) in the last step. The absorbance was captured using reference wavelength of 630 nm in a ELISA reader at 570 nm.

[9] = male, Sprague Dawley, oral, 100 mg/kg (AND equivalent)

`C=C1CC[C@@H]2[C@](C)(CO)[C@H](O)CC[C@@]2(C)[C@@H]1C/C=C1/C(=O)OC[C@H]1O` [AND, Andrographolide] showed an AUC(0-inf) ([1]; iv, 10 mg/kg) of 891 ± 180 µg·h/mL, an AUC(0-t) ([1]; iv, 10 mg/kg) of 801 ± 181 µg·h/mL and an MRT ([1]; iv, 10 mg/kg) of 1.11 ± 0.04 h. For the same molecule, the Vd ([1]; iv, 10 mg/kg) was 0.013 ± 0.003 L, the half-life ([1]; iv, 10 mg/kg) was 0.859 ± 0.031 h and the clearance ([1]; iv, i.v., 10 mg/kg, read-out: CLTotal (converted)) was 0.183 mL/min. It also gave a Tmax ([1]; oral, 100 mg.kg^−1) of 2 h, a bioavailability ([2]; male, Sprague Dawley, 100 mg.kg^−1, oral 100 mg/kg vs i.v. 10 mg/kg, read-out: F (%), bioavailability) of 15.9 ± 3.84% and an AUC(0-inf) [2, 9] of 1850 ± 306 µg·h/mL. It also gave an AUC(0-t) [2, 9] of 1220 ± 143 µg·h/mL, a Cmax [2, 9] of 240 ± 75.4 µg/mL and a half-life [2, 9] of 5.92 ± 0.21 h. For the same molecule, the MRT ([2]; po, 100 mg/kg) was 1.49 ± 0.0.085 h, the “Half-life (t1/2)” value ([3]; iv) was 1.86 ± 0.21 h and the Absolute oral bioavailability ([3]; po) was 9.27 ± 1.69%. The Cmax ([3]; po) was 0.73 ± 0.17 μM.L^−1, the “Half-life (t1/2)” value ([3]; po) was 3.30 ± 0.35 h and the Tmax ([3]; po) was 0.42 ± 0.14 h. For the same molecule, the “log P” value [4] was 2.632 ± 0.135, the “% release” value [5] was 27.89 ± 1.32% and the solubility at 24 h [6] was 6.39 ± 0.47 µg/mL (≈ 18.2 µM).
For `CC(O)COC[C@H]1O[C@@H]2O[C@H]3[C@H](O)[C@@H](O)[C@@H](O[C@H]4[C@H](O)[C@@H](O)[C@@H](O[C@H]5[C@H](O)[C@@H](O)[C@@H](O[C@H]6[C@H](O)[C@@H](O)[C@@H](O[C@H]7[C@H](O)[C@@H](O)[C@@H](O[C@H]8[C@H](O)[C@@H](O)[C@@H](O[C@H]1[C@H](O)[C@H]2O)O[C@@H]8COCC(C)O)O[C@@H]7COCC(C)O)O[C@@H]6COCC(C)O)O[C@@H]5COCC(C)O)O[C@@H]4COCC(C)O)O[C@@H]3COCC(C)O` (stereo partly drawn) [2-HyP-β-CYD, 2-Hydroxypropyl-β-cyclodextrin], the Aqueous solubility [7] is listed as greater than 500000 µg/mL.
In the case of `CCC(CC)COC(=O)[C@H](C)N[P@](=O)(OC[C@H]1O[C@@](C#N)(c2ccc3c(N)ncnn23)[C@H](O)[C@@H]1O)Oc1ccccc1` [Remdesivir], the “% Inhibition of virus replication post infection” value (“% Inhibition” below) (SARS-CoV-2; 24 h, E gene) is reported as 72.26%, the “% Inhibition” value (SARS-CoV-2; 24 h, N gene) is reported as 77.61% and the “% Inhibition” value (SARS-CoV-2; 48 h, E gene) is reported as 99.64%. The “% Inhibition” value (SARS-CoV-2; 48 h, N gene) was 99.76%, the IC50 (SARS-CoV-2; read-out: IC50 (E gene)) was 0.09 µg/mL (≈ 0.149 µM) and the IC50 (SARS-CoV-2; read-out: IC50 (N gene)) was 0.06 µg/mL (≈ 0.0996 µM). It also gave a viability at 24 h ([8]; 24 h) of 99.2% and a viability at 48 h ([8]; 48 h) of 94.4%.
